Assay results taken from the supplement of paper PMC10627819.

Assays:
Assay in all cases: fitness (endpoint OD595 vs no drug) (fraction); higher = more growth
B. subtilis 168 = test system: B. subtilis 168
How it was run: (§1)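 Growth medium was TSB, LB Lennox or CY, and plates were kept at 37 °C. Inoculation was at OD595 0.01 in 384-well plates, at 30 µl per well or 55 µl for S. pneumoniae. OD595 was monitored every 30 min for 14 h and background-subtracted using the first reading. Fitness is the optical density on entering stationary phase divided by the robust mean of no-drug controls, with values capped at 1.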

S. aureus Newman = test system: S. aureus Newman
How it was run: as §1

S. pneumoniae D39V = test system: S. pneumoniae D39V
How it was run: as §1
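Further: OD595 on entry to stationary phase over no-drug wells; at most 1.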

CO/N=C(\C(=O)N[C@@H]1C(=O)N2C(C(=O)O)=C(COC(N)=O)CS[C@H]12)c1ccco1 [Cefuroxime] + N[C@@H]1CONC1=O [Cycloserine D]
fitness, B. subtilis 168
Details	partner 0.125 µg/mL	partner 0.25 µg/mL	partner 0.5 µg/mL
first compound 0.0975 µg/mL	0.677	0.63	0.648
first compound 0.195 µg/mL	0.396	0.41	0.372

fitness, one replicate
Details	first compound 0.04875 µg/mL	first compound 0.0975 µg/mL	first compound 0.195 µg/mL	first compound 0.39 µg/mL	first compound 0.78 µg/mL	first compound 1.562 µg/mL	first compound 3.125 µg/mL	first compound 6.25 µg/mL
B. subtilis 168, partner 0.125 µg/mL	–	–	–	0.337	0.303	0.361	0.287	0.201
B. subtilis 168, partner 0.25 µg/mL	–	–	–	0.404	0.319	0.305	0.22	0.173
B. subtilis 168, partner 0.5 µg/mL	–	–	–	0.306	0.284	0.228	0.204	0.111
S. aureus Newman, partner 0.375 µg/mL	0.926	0.887	0.935	–	–	–	–	–
S. aureus Newman, partner 0.75 µg/mL	0.965	0.822	0.908	–	–	–	–	–
S. aureus Newman, partner 1.5 µg/mL	0.871	0.861	0.976	–	–	–	–	–

O=C(O)c1cn(C2CC2)c2cc(N3CCNCC3)c(F)cc2c1=O [Ciprofloxacin] + CC1=C(C(=O)O)N2C(=O)[C@@H](NC(=O)[C@H](N)c3ccccc3)[C@H]2SC1 [Cephalexin]
Details	fitness
B. subtilis 168, first compound 0.0098 µg/mL, partner 0.125 µg/mL	0.886
B. subtilis 168, first compound 0.0098 µg/mL, partner 0.25 µg/mL	0.88
B. subtilis 168, first compound 0.0098 µg/mL, partner 0.5 µg/mL	0.829
B. subtilis 168, first compound 0.0195 µg/mL, partner 0.125 µg/mL	0.69
B. subtilis 168, first compound 0.0195 µg/mL, partner 0.25 µg/mL	0.68
B. subtilis 168, first compound 0.0195 µg/mL, partner 0.5 µg/mL	0.705
B. subtilis 168, first compound 0.039 µg/mL, partner 0.125 µg/mL	0.0501
B. subtilis 168, first compound 0.039 µg/mL, partner 0.25 µg/mL	0.0506
B. subtilis 168, first compound 0.039 µg/mL, partner 0.5 µg/mL	0.062
S. aureus Newman, first compound 0.0375 µg/mL, partner 0.25 µg/mL	0.732
S. aureus Newman, first compound 0.0375 µg/mL, partner 0.5 µg/mL	0.77
S. aureus Newman, first compound 0.0375 µg/mL, partner 1 µg/mL	0.753
S. aureus Newman, first compound 0.075 µg/mL, partner 0.25 µg/mL	0.727
S. aureus Newman, first compound 0.075 µg/mL, partner 0.5 µg/mL	0.725
S. aureus Newman, first compound 0.075 µg/mL, partner 1 µg/mL	0.733
S. pneumoniae D39V, first compound 0.125 µg/mL, partner 2 µg/mL	0.0158
S. pneumoniae D39V, first compound 0.125 µg/mL, partner 4 µg/mL	0.0138
S. pneumoniae D39V, first compound 0.5 µg/mL, partner 2 µg/mL	0.0332
S. pneumoniae D39V, first compound 0.5 µg/mL, partner 4 µg/mL	0.0303

one replicate
Details	fitness
B. subtilis 168, first compound 0.0098 µg/mL, partner 1 µg/mL	0.951
B. subtilis 168, first compound 0.0195 µg/mL, partner 1 µg/mL	0.75
B. subtilis 168, first compound 0.039 µg/mL, partner 1 µg/mL	0.183
S. pneumoniae D39V, first compound 0.125 µg/mL, partner 0.125 µg/mL	≥ 1
S. pneumoniae D39V, first compound 0.125 µg/mL, partner 0.25 µg/mL	0.996
S. pneumoniae D39V, first compound 0.125 µg/mL, partner 0.5 µg/mL	0.942
S. pneumoniae D39V, first compound 0.25 µg/mL, partner 0.125 µg/mL	0.82
S. pneumoniae D39V, first compound 0.25 µg/mL, partner 0.25 µg/mL	0.849
S. pneumoniae D39V, first compound 0.25 µg/mL, partner 0.5 µg/mL	0.886
S. pneumoniae D39V, first compound 0.25 µg/mL, partner 1 µg/mL	0.686
S. pneumoniae D39V, first compound 0.25 µg/mL, partner 2 µg/mL	0
S. pneumoniae D39V, first compound 0.25 µg/mL, partner 4 µg/mL	0
S. pneumoniae D39V, first compound 0.5 µg/mL, partner 0.125 µg/mL	0.473
S. pneumoniae D39V, first compound 0.5 µg/mL, partner 0.25 µg/mL	0.552
S. pneumoniae D39V, first compound 0.5 µg/mL, partner 0.5 µg/mL	0.583

O=C(O)c1cn(C2CC2)c2cc(N3CCNCC3)c(F)cc2c1=O [Ciprofloxacin] + CO/N=C(\C(=O)N[C@@H]1C(=O)N2C(C(=O)O)=C(COC(C)=O)CS[C@H]12)c1csc(N)n1 [Cefotaxime]
fitness, one replicate
Details	partner 0.00775 µg/mL	partner 0.0155 µg/mL	partner 0.031 µg/mL	partner 0.039 µg/mL	partner 0.0625 µg/mL	partner 0.125 µg/mL	partner 0.25 µg/mL	partner 0.312 µg/mL
B. subtilis 168, first compound 0.0098 µg/mL	0.764	0.594	0.347	–	0.475	0.333	0.263	–
B. subtilis 168, first compound 0.0195 µg/mL	0.546	0.205	0.063	–	0.231	0.129	0.0436	–
B. subtilis 168, first compound 0.039 µg/mL	0.0504	0.0283	0.045	–	0.0338	0.0283	0.0507	–
S. aureus Newman, first compound 0.0375 µg/mL	–	–	–	0.633	–	–	–	0.217
S. aureus Newman, first compound 0.075 µg/mL	–	–	–	0.691	–	–	–	0.0389
S. aureus Newman, first compound 0.15 µg/mL	–	–	–	0.0625	–	–	–	0.0381

Details	fitness
B. subtilis 168, first compound 0.0098 µg/mL, partner 0.5 µg/mL	0.141
B. subtilis 168, first compound 0.0098 µg/mL, partner 1 µg/mL	0.0495
B. subtilis 168, first compound 0.0098 µg/mL, partner 2 µg/mL	0.0625
B. subtilis 168, first compound 0.0195 µg/mL, partner 0.5 µg/mL	0.0302
B. subtilis 168, first compound 0.0195 µg/mL, partner 1 µg/mL	0.0272
B. subtilis 168, first compound 0.0195 µg/mL, partner 2 µg/mL	0.0392
B. subtilis 168, first compound 0.039 µg/mL, partner 0.5 µg/mL	0.0615
B. subtilis 168, first compound 0.039 µg/mL, partner 1 µg/mL	0.0416
B. subtilis 168, first compound 0.039 µg/mL, partner 2 µg/mL	0.0569
S. aureus Newman, first compound 0.0375 µg/mL, partner 0.078 µg/mL	0.578
S. aureus Newman, first compound 0.0375 µg/mL, partner 0.156 µg/mL	0.489
S. aureus Newman, first compound 0.0375 µg/mL, partner 0.625 µg/mL	0.0622
S. aureus Newman, first compound 0.0375 µg/mL, partner 1.25 µg/mL	0.0267
S. aureus Newman, first compound 0.0375 µg/mL, partner 2.5 µg/mL	0.0312
S. aureus Newman, first compound 0.075 µg/mL, partner 0.078 µg/mL	0.518
S. aureus Newman, first compound 0.075 µg/mL, partner 0.625 µg/mL	0.0809
S. aureus Newman, first compound 0.075 µg/mL, partner 1.25 µg/mL	0.0731
S. aureus Newman, first compound 0.075 µg/mL, partner 2.5 µg/mL	0.0893
S. aureus Newman, first compound 0.15 µg/mL, partner 0.078 µg/mL	0.0493
S. aureus Newman, first compound 0.15 µg/mL, partner 0.156 µg/mL	0.0219
S. aureus Newman, first compound 0.15 µg/mL, partner 0.625 µg/mL	0.0244
S. aureus Newman, first compound 0.15 µg/mL, partner 1.25 µg/mL	0.0309
S. aureus Newman, first compound 0.15 µg/mL, partner 2.5 µg/mL	0.0543
S. pneumoniae D39V, first compound 0.125 µg/mL, partner 0.0018 µg/mL	0.992
S. pneumoniae D39V, first compound 0.125 µg/mL, partner 0.0035 µg/mL	0.95
S. pneumoniae D39V, first compound 0.25 µg/mL, partner 0.0018 µg/mL	0.919
S. pneumoniae D39V, first compound 0.25 µg/mL, partner 0.0035 µg/mL	0.962
S. pneumoniae D39V, first compound 0.25 µg/mL, partner 0.007 µg/mL	0.873
S. pneumoniae D39V, first compound 0.5 µg/mL, partner 0.0018 µg/mL	0.809
S. pneumoniae D39V, first compound 0.5 µg/mL, partner 0.0035 µg/mL	0.803
